Source: patent publication US20260022142A1, “MACROCYCLIC IMMUNOMODULATORS” (Bristol-Myers Squibb Company, priority 2022, published 2026)
Bridge positions count the residues as written; N and C are the ends. Square brackets hold non-standard residues; d marks the D form. Peptide text beside a SMILES is read from it. * marks the point of attachment. ξ: configuration not given here. Bip = N[C@@H](Cc1ccc(-c2ccccc2)cc1)C(=O)O; Phe(3-Me) = Cc1cccc(C[C@H](N)C(=O)O)c1; hArg = N=C(N)NCCCC[C@H](N)C(=O)O; Cha = N[C@@H](CC1CCCCC1)C(=O)O; Cit = NC(=O)NCCC[C@H](N)C(=O)O; aThr = C[C@H](O)[C@H](N)C(=O)O; Thr(3ξ) = CC(O)[C@H](N)C(=O)O; Carboxymethyl = O=C(O)C*; Orn = NCCC[C@H](N)C(=O)O; Aun = NCCCCCCCCCCC(=O)O; Dab = NCC[C@H](N)C(=O)O; Dap = NC[C@H](N)C(=O)O; AEEA = NCCOCCOCC(=O)O

Target: T1, PD-1/PD-L1 interaction (PE-labeled human PD-L1-Ig binding to Jurkat cell line over-expressing human PD-1) (Homo sapiens, UniProt Q15116)
T1 construct: expressed in transfected cells; host or cells: Jurkat
Experiment: Jurkat-PD-1 Cell Binding High-Content Screening Assay (CBA)
Format: cell-based
Settings: Jurkat cell line over-expressing human PD-1; PE-labeled PD-L1-Ig 20 nM final; read-out: Jurkat hPD1-PDL1 IC50
Method in brief: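 First, compound is added to PD-1-expressing Jurkat cells in serum-containing DMEM and left 2 h at 37° C. Next, PE-conjugated PD-L1-Ig is introduced at 20 nM final concentration for 1 hour. Finally, cells are fixed in 4% paraformaldehyde with Hoechst 33342, washed and imaged.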

T1 sequence (Q15116 25-288): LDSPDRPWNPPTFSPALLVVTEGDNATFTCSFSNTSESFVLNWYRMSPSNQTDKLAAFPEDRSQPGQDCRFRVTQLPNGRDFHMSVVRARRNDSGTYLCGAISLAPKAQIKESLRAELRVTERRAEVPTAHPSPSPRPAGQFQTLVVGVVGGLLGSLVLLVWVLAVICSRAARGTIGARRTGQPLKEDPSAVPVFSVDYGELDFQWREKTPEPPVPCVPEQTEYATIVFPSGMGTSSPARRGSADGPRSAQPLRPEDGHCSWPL

Compound	IC50
Cc1cccc(C[C@@H]2NC(=O)[C@H](CC(=O)O)NC(=O)[C@H](Cc3ccc(OCC(=O)O)cc3)NC(=O)[C@H](CCCCNC(=N)N)NC(=O)CSC[C@@H](C(=O)NCC(=O)NCCOCCOCC(=O)N[C@@H](CCN)C(=O)NCCCCCCCCCCC(=O)O)NC(=O)[C@H](CCCN)NC(=O)[C@H](C(C)C)NC(=O)[C@H](CC3CCCCC3)NC(=O)[C@H](CCN)NC(=O)[C@@H](CC(C)C)NC(=O)[C@H](CCCN)NC(=O)[C@H](C(C)C)NC(=O)[C@H](Cc3ccc(-c4ccccc4)cc3)NC(=O)[C@H](C(C)C)NC2=O)c1 [Compound 3246] ({CH2CO}-[hArg]Y(Carboxymethyl)D[Phe(3-Me)]V[Bip]V[Orn][dL][Dab][Cha]V[Orn]CG[AEEA][Dab][Aun]-OH; thioether N-14)	26.5 nM
Cc1cccc(C[C@@H]2NC(=O)[C@H](CC(=O)O)NC(=O)[C@H](Cc3ccc(OCC(=O)O)cc3)NC(=O)[C@H](CCCCNC(=N)N)NC(=O)CSC[C@@H](C(=O)N[C@@H](CCCN)C(=O)NCCCCCCCCCCC(=O)O)NC(=O)[C@H](CCCN)NC(=O)[C@H](C(C)C)NC(=O)[C@H](CC3CCCCC3)NC(=O)[C@H](CCN)NC(=O)[C@@H](CC(C)C)NC(=O)[C@H](CCCN)NC(=O)[C@H](C(C)C)NC(=O)[C@H](Cc3ccc(-c4ccccc4)cc3)NC(=O)[C@H](C(C)C)NC2=O)c1 [Compound 3247] ({CH2CO}-[hArg]Y(Carboxymethyl)D[Phe(3-Me)]V[Bip]V[Orn][dL][Dab][Cha]V[Orn]C[Orn][Aun]-OH; thioether N-14)	14.8 nM
Cc1cccc(C[C@@H]2NC(=O)[C@H](CC(=O)O)NC(=O)[C@H](Cc3ccc(OCC(=O)O)cc3)NC(=O)[C@H](CCCCNC(=N)N)NC(=O)CSC[C@@H](C(=O)NCCOCCOCC(=O)N[C@@H](CCN)C(=O)NCCCCCCCCCCC(=O)O)NC(=O)[C@H](CCCN)NC(=O)[C@H](C(C)C)NC(=O)[C@H](CC3CCCCC3)NC(=O)[C@H](CN)NC(=O)[C@@H](CC(C)C)NC(=O)[C@H](CCCN)NC(=O)[C@H](C(C)C)NC(=O)[C@H](Cc3ccc(-c4ccccc4)cc3)NC(=O)[C@H](C(C)C)NC2=O)c1 [Compound 3249] ({CH2CO}-[hArg]Y(Carboxymethyl)D[Phe(3-Me)]V[Bip]V[Orn][dL][Dap][Cha]V[Orn]C[AEEA][Dab][Aun]-OH; thioether N-14)	25.6 nM
Cc1cccc(C[C@@H]2NC(=O)[C@H](CC(=O)O)NC(=O)[C@H](Cc3ccc(OCC(=O)O)cc3)NC(=O)[C@H](CCCCNC(=N)N)NC(=O)CSC[C@@H](C(=O)N[C@@H](CCN)C(=O)NCCOCCOCC(=O)NCCCCCCCCCCC(=O)O)NC(=O)[C@H](CCCN)NC(=O)[C@H](C(C)C)NC(=O)[C@H](CC3CCCCC3)NC(=O)[C@H](CCN)NC(=O)[C@@H](CC(C)C)NC(=O)[C@H](CCN)NC(=O)[C@H](C(C)C)NC(=O)[C@H](Cc3ccc(-c4ccccc4)cc3)NC(=O)[C@H](C(C)C)NC2=O)c1 [Compound 3252] ({CH2CO}-[hArg]Y(Carboxymethyl)D[Phe(3-Me)]V[Bip]V[Dab][dL][Dab][Cha]V[Orn]C[Dab][AEEA][Aun]-OH; thioether N-14)	7.4 nM
CC(C)C[C@H]1NC(=O)[C@H](CCN)NC(=O)[C@H](C(C)C)NC(=O)[C@H](Cc2ccc(-c3ccccc3)cc2)NC(=O)[C@H](C(C)C)NC(=O)[C@H](Cc2c[nH]c3ccccc23)NC(=O)[C@H](CC(=O)O)NC(=O)[C@H](Cc2ccc(OCC(=O)O)cc2)NC(=O)[C@H](CCCCNC(=N)N)NC(=O)CSC[C@@H](C(=O)N[C@@H](CCN)C(=O)NCCCCCCCCCCC(=O)O)NC(=O)[C@H](CCCCN)NC(=O)[C@H](C(C)C)NC(=O)[C@H](CC2CCCCC2)NC(=O)[C@H](CCN)NC1=O [Compound 3255] ({CH2CO}-[hArg]Y(Carboxymethyl)DWV[Bip]V[Dab][dL][Dab][Cha]VKC[Dab][Aun]-OH; thioether N-14)	13.2 nM
Cc1cccc(C[C@@H]2NC(=O)[C@H](CC(=O)O)NC(=O)[C@H](Cc3ccc(OCC(=O)O)cc3)NC(=O)[C@H](CCCCNC(=N)N)NC(=O)CSC[C@@H](C(=O)N[C@@H](CCN)C(=O)NCCCCCCCCCCC(=O)O)NC(=O)[C@H](CCCN)NC(=O)[C@H](C(C)C)NC(=O)[C@H](CC3CCCCC3)NC(=O)[C@H](CCN)NC(=O)[C@@H](CC(C)C)NC(=O)[C@H](CCCN)NC(=O)[C@H](C(C)C)NC(=O)[C@H](Cc3ccc(-c4ccccc4)cc3)NC(=O)[C@H](C(C)C)NC2=O)c1 [Compound 3259] ({CH2CO}-[hArg]Y(Carboxymethyl)D[Phe(3-Me)]V[Bip]V[Orn][dL][Dab][Cha]V[Orn]C[Dab][Aun]-OH; thioether N-14)	10.9 nM

Results, then the compound that gave them:

IC50	Compound
3.6 nM	Cc1cccc(C[C@@H]2NC(=O)[C@H](CC(=O)O)NC(=O)[C@H](Cc3ccc(OCC(=O)O)cc3)NC(=O)[C@H](CCCCNC(=N)N)NC(=O)CSC[C@@H](C(=O)NCCOCCOCC(=O)N[C@@H](CCN)C(=O)NCCCCCCCCCCC(=O)O)NC(=O)[C@H](CCCN)NC(=O)[C@H](C(C)C)NC(=O)[C@H](CC3CCCCC3)NC(=O)[C@H](CCN)NC(=O)[C@@H](CC(C)C)NC(=O)[C@H](CCCN)NC(=O)[C@H](C(C)C)NC(=O)[C@H](Cc3ccc(-c4ccccc4)cc3)NC(=O)[C@H](C(C)C)NC2=O)c1 [Compound 3248] ({CH2CO}-[hArg]Y(Carboxymethyl)D[Phe(3-Me)]V[Bip]V[Orn][dL][Dab][Cha]V[Orn]C[AEEA][Dab][Aun]-OH; thioether N-14)
5.7 nM	Cc1cccc(C[C@@H]2NC(=O)[C@H](CC(=O)O)NC(=O)[C@H](Cc3ccc(OCC(=O)O)cc3)NC(=O)[C@H](CCCCNC(=N)N)NC(=O)CSC[C@@H](C(=O)NCCOCCOCC(=O)N[C@@H](CCN)C(=O)NCCCCCCCCCCC(=O)O)NC(=O)[C@H](CCCN)NC(=O)[C@H](C(C)C)NC(=O)[C@H](CC3CCCCC3)NC(=O)[C@H](CCN)NC(=O)[C@@H](CC(C)C)NC(=O)[C@H](CCN)NC(=O)[C@H](C(C)C)NC(=O)[C@H](Cc3ccc(-c4ccccc4)cc3)NC(=O)[C@H](C(C)C)NC2=O)c1 [Compound 3251] ({CH2CO}-[hArg]Y(Carboxymethyl)D[Phe(3-Me)]V[Bip]V[Dab][dL][Dab][Cha]V[Orn]C[AEEA][Dab][Aun]-OH; thioether N-14)
8.8 nM	CC(C)C[C@H]1NC(=O)[C@H](CCN)NC(=O)[C@H](C(C)C)NC(=O)[C@H](Cc2ccc(-c3ccccc3)cc2)NC(=O)[C@H](C(C)C)NC(=O)[C@H](Cc2c[nH]c3ccccc23)NC(=O)[C@H](CC(=O)O)NC(=O)[C@H](Cc2ccc(OCC(=O)O)cc2)NC(=O)[C@H](C(C)O)NC(=O)CSC[C@@H](C(=O)N[C@@H](CCN)C(=O)NCCCCCCCCCCC(=O)O)NC(=O)[C@H](CCCNC(N)=O)NC(=O)[C@H](C(C)C)NC(=O)[C@H](CC2CCCCC2)NC(=O)[C@H](CCN)NC1=O (stereo partly drawn) [Compound 3253] ({CH2CO}-[Thr(3ξ)]Y(Carboxymethyl)DWV[Bip]V[Dab][dL][Dab][Cha]V[Cit]C[Dab][Aun]-OH; thioether N-14)
10.9 nM	Cc1cccc(C[C@@H]2NC(=O)[C@H](CC(=O)O)NC(=O)[C@H](Cc3ccc(OCC(=O)O)cc3)NC(=O)[C@H](C(C)O)NC(=O)CSC[C@@H](C(=O)N[C@H](CC(N)=O)C(=O)NCCOCCOCC(=O)NCCCCCCCCCCC(=O)O)NC(=O)[C@H](CO)NC(=O)[C@H](C(C)C)NC(=O)[C@H](CC3CCCCC3)NC(=O)[C@H](CCN)NC(=O)[C@@H](CC(C)C)NC(=O)[C@H](CCCN)NC(=O)[C@H](C(C)C)NC(=O)[C@H](Cc3ccc(-c4ccccc4)cc3)NC(=O)[C@H](C(C)C)NC2=O)c1 (stereo partly drawn) [Compound 3254] ({CH2CO}-[Thr(3ξ)]Y(Carboxymethyl)D[Phe(3-Me)]V[Bip]V[Orn][dL][Dab][Cha]VSC[dN][AEEA][Aun]-OH; thioether N-14)
4 nM	Cc1cccc(C[C@@H]2NC(=O)[C@H](CC(=O)O)NC(=O)[C@H](Cc3ccc(OCC(=O)O)cc3)NC(=O)[C@H]([C@H](C)O)NC(=O)CSC[C@@H](C(=O)N[C@H](CC(N)=O)C(=O)NCCOCCOCC(=O)NCCCCCCCCCCC(=O)O)NC(=O)[C@H](CCCCN)NC(=O)[C@H](C(C)C)NC(=O)[C@H](CC3CCCCC3)NC(=O)[C@H](CCN)NC(=O)[C@@H](CC(C)C)NC(=O)[C@H](CCN)NC(=O)[C@H](C(C)C)NC(=O)[C@H](Cc3ccc(-c4ccccc4)cc3)NC(=O)[C@H](C(C)C)NC2=O)c1 [Compound 3256] ({CH2CO}-[aThr]Y(Carboxymethyl)D[Phe(3-Me)]V[Bip]V[Dab][dL][Dab][Cha]VKC[dN][AEEA][Aun]-OH; thioether N-14)
5.3 nM	Cc1cccc(C[C@@H]2NC(=O)[C@H](CC(=O)O)NC(=O)[C@H](Cc3ccc(OCC(=O)O)cc3)NC(=O)[C@H](C(C)O)NC(=O)CSC[C@@H](C(=O)NCCOCCOCC(=O)NCCCCCCCCCCC(=O)O)NC(=O)[C@H](CCCCN)NC(=O)[C@H](C(C)C)NC(=O)[C@H](CC3CCCCC3)NC(=O)[C@H](CCN)NC(=O)[C@@H](CC(C)C)NC(=O)[C@H](CCN)NC(=O)[C@H](C(C)C)NC(=O)[C@H](Cc3ccc(-c4ccccc4)cc3)NC(=O)[C@H](C(C)C)NC2=O)c1 (stereo partly drawn) [Compound 3257] ({CH2CO}-[Thr(3ξ)]Y(Carboxymethyl)D[Phe(3-Me)]V[Bip]V[Dab][dL][Dab][Cha]VKC[AEEA][Aun]-OH; thioether N-14)
37.3 nM	CC(C)C[C@@H]1NC(=O)[C@H](Cc2c[nH]c3ccccc23)NC(=O)[C@H](CC(=O)O)NC(=O)[C@H](Cc2ccc(OCC(=O)O)cc2)NC(=O)[C@H](CCCCNC(=N)N)NC(=O)CSC[C@@H](C(=O)NCCOCCOCC(=O)N[C@@H](CCN)C(=O)NCCCCCCCCCCC(=O)O)NC(=O)[C@H](CCCCN)NC(=O)[C@H](C(C)C)NC(=O)[C@H](CC2CCCCC2)NC(=O)[C@H](CCN)NC(=O)[C@@H](C)NC(=O)[C@H](CCN)NC(=O)[C@H](C(C)C)NC(=O)[C@H](Cc2ccc(-c3ccccc3)cc2)NC1=O [Compound 3258] ({CH2CO}-[hArg]Y(Carboxymethyl)DWL[Bip]V[Dab][dA][Dab][Cha]VKC[AEEA][Dab][Aun]-OH; thioether N-14)
